Measured values from paper PMC8954382, “A Sub-Micromolar MraYAA Inhibitor with an Aminoribosyl Uridine Structure and a (S,S)-Tartaric Diamide: Synthesis, Biological Evaluation and Molecular Modeling” (Molecules, 2022).
Like-named read-outs stand apart in the source and are kept apart here.

What was measured:
[1] = system: Staphylococcus aureus MRSA ATCC 43300; assay: Antibacterial activity, MIC by broth microdilution; assay type: cell-based; settings: Gram +
Experimental: (§1) Even if our goal was to improve the MraY inhibitory activity of the reference urea 13, and that was successfully achieved, the antibacterial activity of MraY inhibitors 2–5 was also evaluated against several bacterial strains. Gram-negative (E. coli ATCC 8730, C. freundii ATCC8090 and P. aeruginosa ATCC 27853) and Gram-positive pathogenic bacterial strains (S. aureus ATCC 25923 and E. faecium ATCC 19434), including a methicillin resistant strain (S. aureus MRSA ATCC 43300), were selected as representative of pathogen bacterial diversity. Piperacillin and vancomycin were used as positive controls in the tests. […] Therefore, further optimization of the lipophilic side chain is still required to increase the antibacterial activity by modulating the lipophilicity of the molecule.
(§2) Tests were made according to the procedure described in Reference, following EUCAST (European Committee on Antimicrobial Susceptibility testing)/CLSI (Clinical and Laboratory Standard Institute) recommended procedure. This microtitration plate size allows direct detection of bacterial growth in a relatively small volume, without the use of a spectrophotometer or the addition of dyes. Molecules were solubilized in 100% DMSO (cell culture grade) at 20.48 mg/mL concentration and 40-fold diluted in MHB to reduce DMSO concentration in the antibacterial test, just before utilization. The MHB-diluted solutions were then serially two-fold diluted in MHB, at final concentration ranging from 128 to 1 µg/mL. Bacterial inoculums were prepared for each strain, resuspending isolated colonies from 18 h cultured plates. Equivalents of 0.5 Mac Farland turbidity standard (approximately 1.108 CFU/mL) were prepared in saline solution (NaCl […]) and diluted 200-fold in MBH. The bacterial suspensions were then added to microplates containing the diluted molecules. Microtitration plates were incubated overnight at 37 °C. MICs were determined as the lowest dilution of product showing no visual turbidity.

[2] = system: Citrobacter freundii ATCC 8090; assay: Antibacterial activity, MIC by broth microdilution; assay type: cell-based; settings: Gram -
Experimental: as §1, §2

[3] = system: Escherichia coli ATCC 8730; assay: Antibacterial activity, MIC by broth microdilution; assay type: cell-based; settings: Gram -
Experimental: as §1, §2

[4] = system: Enterococcus faecium ATCC 19434; assay: Antibacterial activity, MIC by broth microdilution; assay type: cell-based; settings: Gram +
Experimental: as §1, §2

[5] = system: Staphylococcus aureus ATCC 25923; assay: Antibacterial activity, MIC by broth microdilution; assay type: cell-based; settings: Gram +
Experimental: as §1, §2

[6] = system: Pseudomonas aeruginosa ATCC 27853; assay: Antibacterial activity, MIC by broth microdilution; assay type: cell-based; settings: Gram -
Experimental: as §1, §2

[7] = molecular target: T1, MraY transferase purified from Aquifex aeolicus (MraYAA) (Aquifex aeolicus, UniProt O66465); assay: MraYAA transferase inhibition, fluorescence assay with dansylated UDP-MurNAc-pentapeptide; assay type: biochemical; settings: for IC50: inhibition of MraYAA transferase activity, triplicate, repeated at least twice
T1 construct: His tag; made in house
T1 sequence (O66465 whole entry): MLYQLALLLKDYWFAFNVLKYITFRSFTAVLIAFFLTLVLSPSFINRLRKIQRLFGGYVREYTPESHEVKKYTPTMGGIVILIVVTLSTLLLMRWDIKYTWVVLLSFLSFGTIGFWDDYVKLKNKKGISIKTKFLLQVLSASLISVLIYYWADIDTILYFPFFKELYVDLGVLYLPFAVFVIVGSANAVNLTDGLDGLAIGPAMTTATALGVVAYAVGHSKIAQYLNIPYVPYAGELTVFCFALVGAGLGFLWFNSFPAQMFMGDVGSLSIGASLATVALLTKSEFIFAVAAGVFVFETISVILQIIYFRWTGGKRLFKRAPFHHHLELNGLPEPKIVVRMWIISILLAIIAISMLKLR
Experimental: The inhibitory activity of the synthesized compounds 2, (S,S)-3a, (R,R)-3b, 4 and 5 was evaluated on MraY transferase purified from Aquifex aeolicus (MraYAA), which was prepared as previously described by Chung et al.. Their activity was compared to the inhibitory activity of the unprotected amino precursor 12, urea-containing inhibitor 13 and C- and N-triazole-containing inhibitors 14 and 15 (Figure 4) that we previously synthesized (Table 1). Commercially available tunicamycin from Streptomyces sp. was used as a positive control in the test.
The inhibitory activity of the synthesized compounds 1–5 was determined as described in Reference. The compounds were evaluated on His-tagged MraY transferase purified from Aquifex aeolicus (MraYAA) prepared as previously described by Chung et al.. The assays were performed as previously described by Stachyra et al. in 96-well plates in a total reaction mixture of 100 µL containing 100 mM of Tris-HCl (pH 7.5), 40 mM MgCl2, 150 µM C55-P, 150 mM NaCl, 25 µM dansylated UDP-MurNAc-pentapeptide and 0.4% of n-dodecyl β-D-maltoside. The reaction was initiated by the addition of pure MraYAA enzyme (10 µL, 0.036 mg/mL). Briefly, MraY catalyzed the formation of lipid I, displaying an apolar environment from polar and hydrosoluble dansylated-UDP-MurNAc-pentapeptide. This modification in the environment of the dansyl probe was accompanied by an enhancement (3.4 times) of fluorescence, as well as a shift of the maximum of fluorescence emission spectrum from 560 nm for the dansylated nucleotidic substrate to 530 nm for the dansylated lipid product (see Figure 2 in Stachyra et al.. This property was exploited to develop an HTS assay and to assess MraY activity by using an Enspire fluorescence microplate reader (Perkin-Elmer, Courtaboeuf, France). The fluorescence measurement was read every two minutes at 37 °C, under shaking during 60 min; the excitation wavelength and the emission wavelength were 340 nm and 530 nm, respectively. Experiments were performed in triplicate, and each experiment was repeated at least twice. In each case, the fluorescence of a control sample without enzyme was subtracted, initial velocity was calculated and percent inhibition was deduced. IC50 values were determined from plots of the percent inhibition versus the inhibitor concentration, and data were processed on Excel software.

MraY = settings: Table 2, known inhibitor, cited from earlier work
[8] = system: six selected bacterial species; parameters: method as in PMID 34115086; settings: previously reported; ref [32]; cited from earlier work

Row | Molecule | CMI [1] [µg/mL] | CMI [2] [µg/mL] | CMI [3] [µg/mL] | CMI [4] [µg/mL] | CMI [5] [µg/mL] | CMI [6] [µg/mL] | IC50 [7] [nM] | IC50 (MraY; ref [31]) [nM] | antibacterial activity [8] | gain in activity (factor) as compared to the reference compound 13 with an urea linker ([7]; ratio of MraYAA IC50 values) | IC50 (MraY; ref [41]) [nM]
1 | CCCCCCCCCCNC(=O)C(O)C(O)C(=O)NCC(OC1OC(CN)C(O)C1O)C1OC(n2ccc(=O)[nH]c2=O)C(O)C1O [(R,R)-3b] | > 128 | > 128 | > 128 | > 128 | 128 | > 128 | 1380 ± 50 | – | – | – | –
2 | CCCCCCCCCCCCCCCCC[C@H]1CN(C)[C@@H]([C@H](O[C@@H]2O[C@H](CN)[C@@H](O)[C@H]2O)[C@H]2O[C@@H](n3ccc(=O)[nH]c3=O)[C@H](O)[C@@H]2O)C(=O)N(C)[C@@H]1C(=O)O [Carbacaprazamycin] | – | – | – | – | – | – | – | 104 | – | – | –
3 | CCCCCCCCCCNc1c(NCC(OC2OC(CN)C(O)C2O)C2OC(n3ccc(=O)[nH]c3=O)C(O)C2O)c(=O)c1=O (stereo not drawn) [Compound 2] | > 128 | > 128 | > 128 | > 128 | > 128 | > 128 | 17970 ± 40 | – | – | – | –
4 | CCCCCCCCCCC(=O)NCC(OC1OC(CN)C(O)C1O)C1OC(n2ccc(=O)[nH]c2=O)C(O)C1O (stereo not drawn) [Compound 4] | 128 | > 128 | > 128 | 128 | 128 | > 128 | 6490 ± 210 | – | – | – | –
5 | CCCCCCCCCCS(=O)(=O)NCC(OC1OC(CN)C(O)C1O)C1OC(n2ccc(=O)[nH]c2=O)C(O)C1O (stereo not drawn) [Compound 5] | > 128 | > 128 | > 128 | > 128 | > 128 | > 128 | 2910 ± 130 | – | – | – | –
6 | NC[C@H](O[C@@H]1O[C@H](CN)[C@@H](O)[C@H]1O)[C@H]1O[C@@H](n2ccc(=O)[nH]c2=O)[C@H](O)[C@@H]1O [Compound 12, reference compound] | – | – | – | – | – | – | 50300 ± 3270 | – | – | – | –
7 | CCCCCCCCCCNC(=O)NC[C@H](O[C@@H]1O[C@H](CN)[C@@H](O)[C@H]1O)[C@H]1O[C@@H](n2ccc(=O)[nH]c2=O)[C@H](O)[C@@H]1O [Compound 13, reference compound] | > 128 | > 128 | > 128 | > 128 | > 128 | > 128 | 1930 ± 130 | – | does not display antibacterial activity | – | –
8 | CCCCCCCCCCNC(=O)C(O)C(O)C(=O)NCC(OC1OC(CN)C(O)C1O)C1OC(n2ccc(=O)[nH]c2=O)C(O)C1O [Compound (S,S)-3a] | > 128 | > 128 | > 128 | > 128 | 128 | > 128 | 370 ± 10 | – | – | 5 | –
9 | CC(C)C[C@H](NC(=O)[C@@H](NC(=O)N[C@H](C(=O)O)C(C)C)[C@@H]1CCN=C(N)N1)C(=O)NCCCN[C@H](C(=O)O)[C@H](O[C@@H]1O[C@H](CN)[C@@H](O)[C@H]1O)[C@H]1O[C@@H](n2ccc(=O)[nH]c2=O)[C@H](O)[C@@H]1O [Muraymycin D2] | – | – | – | – | – | – | – | – | – | – | 46
10 | CCN1CCN(C(=O)N[C@@H](C(=O)N[C@@H]2C(=O)N3[C@@H]2SC(C)(C)[C@@H]3C(=O)O)c2ccccc2)C(=O)C1=O [Piperacillin, reference compound] | > 128 | 4 | 4 | 4 | 4 | 8 | – | – | – | – | –
11 | CN[C@H](CC(C)C)C(=O)N[C@H]1C(=O)N[C@@H](CC(N)=O)C(=O)N[C@H]2C(=O)N[C@H]3C(=O)N[C@H](C(=O)N[C@H](C(=O)O)c4cc(O)cc(O)c4-c4cc3ccc4O)[C@H](O)c3ccc(c(Cl)c3)Oc3cc2cc(c3O[C@@H]2O[C@H](CO)[C@@H](O)[C@H](O)[C@H]2O[C@H]2C[C@](C)(N)[C@H](O)[C@H](C)O2)Oc2ccc(cc2Cl)[C@H]1O [Vancomycin, reference compound] | 1 | – | – | 0.5 | 1 | – | – | – | – | – | –
12 | Tunicamycin [reference compound] | – | – | – | – | – | – | 26 | – | – | – | –
